Measurements taken from PMC9227013, “Synthesis, Anticancer Potential and Comprehensive Toxicity Studies of Novel Brominated Derivatives of Bacterial Biopigment Prodigiosin from Serratia marcescens ATCC 27117” (Molecules, 2022).
Converted amounts (≈) assume the structure as drawn. Like-named read-outs stand apart in the source and are kept apart here.

Columns and labels:
MRC-5 (lung fibroblasts) = test: MTT antiproliferative assay on MRC-5 cells; assay type: cell-based; details: Homo sapiens, MRC5, read-out: IC50
Protocol: (§1) Selected cell lines MRC-5 (lung fibroblasts), A549 (lung cancer), A375 (melanoma, skin cancer), MDA-MB-231 (breast cancer), and HCT116 (colon cancer) were obtained from ATCC, Manassas, US. Antiproliferative activities of PG and its Br derivatives were measured using the standard colorimetric MTT [3-(4,5-dimethylthiazol-2-yl)-2,5-diphenyltetrazolium bromide] assay. Briefly, cells were plated in a 96-well flat-bottom plate (Sarstedt, Nümbrecht, Germany) at a concentration of 1 × 10^4 cells per well, grown in a humidified atmosphere of 95% air and 5% CO2 at 37 °C, and maintained as monolayer cultures in RPMI 1640 medium supplemented with 10% fetal bovine serum (FBS), 100 U/mL penicillin, and 100 μg/mL streptomycin (all media components from Gibco™ by Thermo Fischer Scientific CE). Each tested compound was added to the cells at a concentration of 0.05–100.00 μg/mL, and the treatment lasted for 48 h. The MTT assay was performed two times in four replicates, and the results were presented as a percentage of the DMSO-treated control that was arbitrarily set to 100%. Plates were read using the Tecan Infinite 200 Pro multiplate reader (Tecan Group Ltd., Männendorf, Switzerland).
(§2) To assess the effect of the treatment duration, exposure of MRC-5 and HCT116 cells to PG and its Br derivatives was observed after 24 h, 48 h, and 72 h and measured using the MTT assay, as described above. MRC-5 and HCT-116 cells treated for 24 h were additionally analyzed using DM IL LED Inverted Microscope (Leica Microsystems, Mannheim, Germany) at 20× magnification.

A549 (lung cancer) = test: MTT antiproliferative assay on A549 cells; assay type: cell-based; details: Homo sapiens; A549, 48 h treatment; read-out: IC50
Protocol: as §1

[1] = system: A375 (melanoma, skin cancer); test: MTT antiproliferative assay on A375 cells; assay type: cell-based; details: Homo sapiens, A-375; A375, 48 h treatment; read-out: IC50
Protocol: as §1

[2] = system: MDA-MB-231 (breast cancer); test: MTT antiproliferative assay on MDA-MB-231 cells; assay type: cell-based; details: Homo sapiens; MDA-MB-231, 48 h treatment; read-out: IC50
Protocol: as §1

HCT116 (colon cancer) = test: MTT antiproliferative assay on HCT116 cells; assay type: cell-based; details: Homo sapiens, HCT-116, read-out: IC50
Protocol: as §1, §2

MRC-5 cells = test: Annexin V flow cytometry, early apoptosis; assay type: cell-based; details: MRC-5, compound at IC50 concentration, 24 h
Protocol: The eBioscience^TM Annexin V Apoptosis Detection Kit APC (Invitrogen by Thermo Fischer Scientific, Waltham, MA, USA) was used for the assessment of cellular integrity and the externalization of phosphatidylserine. MRC-5 cells were plated in a 6-well flat-bottom plate at a concentration of 2.5 × 10^5 cells per well, grown for 24 h in a humidified atmosphere of 95% air and 5% CO2 at 37 °C in RPMI 1640 medium supplemented with 10% fetal bovine serum (FBS), 100 U/mL penicillin, and 100 μg/mL streptomycin (Gibco™ by Thermo Fischer Scientific CE, Waltham, MA, USA). Each tested compound was added to the cells at IC50 concentration, and the incubation continued for another 24 h under the same conditions. Upon incubation, cells were collected, washed once with Dulbecco’s Phosphate-Buffered Saline (Gibco™ by Thermo Fischer Scientific CE, Waltham, MA, USA), and stained with Annexin V FITC and propidium iodide (PI) under the manufacturer’s instructions. Briefly, MRC-5 cells were resuspended in 1 × Binding Buffer at 1–5 × 10^6 cells per mL and incubated with 5.00 µL Annexin V FITC for 15 min at room temperature in a final volume of 100 μL. […] Immediately after staining, cells were analyzed using a CyFlow Space Partec flow cytometer, with Partec FloMax software (Partec GmbH, Münster, Germany).

[3] = system: Caenorhabditis elegans AU37; test: Roundworm (C. elegans) survival assay; assay type: in vivo; details: for Survival rate: 48 h
Protocol: Nematode roundworms (Caenorhabditis elegans AU37) were obtained from the Caenorhabditis Genetics Center (CGC), University of Minnesota, Minneapolis, Minnesota, US. C. elegans AU37 (glp-4; sek-1) was propagated under standard conditions, synchronized by hypochlorite bleaching, and cultured on nematode growth medium using E. coli OP50 as a food source, as described previously. The C. elegans survival assay was carried out following the standard procedure with some modifications. Briefly, synchronized worms (L4 stage) were suspended in a medium containing 95% M9 buffer (3.0 g of KH2PO4, 6.0 g of Na2HPO4, 5.0 g of NaCl, and 1 mL of 1 M MgSO4∙7H2O in 1 L of water), 5% LB broth, and 10 μg/mL of cholesterol (Sigma-Aldrich, Munich, Germany). The experiment was carried out in 96-well flat-bottomed microtiter plates (Sarstedt, Nümbrecht, Germany) in the final volume of 100 μL per well. 25 μL of this suspension of nematodes (25–35 nematodes) were transferred to the wells of a 96-well microtiter plate, where 50 μL of the medium was previously added. Next, 25 μL of the solvent control (1% DMSO) or 25 μL of the concentrated tested compound solution was added to the test wells. Final concentrations of the compounds were 50.00, 25.00, 12.50, 6.25, 3.13, and 1.57 µg/mL. Subsequently, the plates were incubated at 25 °C for 2 days. The fraction of dead worms was determined after 48 h by counting the number of dead worms and the total number of worms in each well, using a Carl Zeiss™ Stemi 508 Stereomicroscope (Zeiss Group, Jena, Germany) at 40× magnification. The compounds were tested three times in each assay and each assay was repeated two times (n = 6). As a negative control experiment, nematodes were exposed to the medium containing 1% DMSO.

[4] = system: zebrafish (Danio rerio) embryos; test: Zebrafish (D. rerio) embryotoxicity; assay type: in vivo
Protocol: Wild-type zebrafish (Danio rerio) strain was obtained from the commercial supplier Pet Center, Belgrade, Serbia. Zebrafish embryotoxicity assay was performed according to general rules of the OECD Guidelines for the testing of chemicals. The wild-type zebrafish (D. rerio) strain was kept under controlled environmental conditions (water temperature 28 °C, 14 h under the light and 10 h in the dark) and fed regularly three times a day with commercially dry flake food supplemented with Artemia nauplii (TetraMinTM flakes; Tetra Melle, Germany). Zebrafish embryos were produced by female and male adults mating in the ratio of 1:2. Obtained embryos were collected and washed from detritus and carefully handled. Only fertilized embryos were selected and distributed into 24-well plates (Sarstedt, Germany) containing 10 embryos per well. Each well contained exactly 1 mL of water for embryos (0.2 g/L of Instant Ocean® Salt in distilled water). For assessing lethal and developmental toxicity, embryos at the 6 and 20 h postfertilization (hpf) stages were treated with selected compounds at concentrations of 0.1–100 μg/mL (maximum DMSO concentration in the negative control was 1%) and incubated at 28 °C. Experiments were performed in triplicate, using 30 embryos for each concentration. For five days, the appearance of different morphophysiological parameters in embryo development was monitored, and dead embryos were counted and discarded every 24 h. On the fifth day, the embryos were anesthetized by the addition of 0.1% (w/v) tricaine solution (Sigma-Aldrich, St. Louis, Missouri, US), observed under a stereomicroscope (SMZ-143-N2GG, Motic, Germany) at 3.5× magnification, photographed, and killed by freezing at −20 °C for ≥24 h. All experiments involving zebrafish were performed in compliance with the European directive 2010/63/EU and the ethical guidelines of the Guide for Care and Use of Laboratory Animals of the Institute of Molecular Genetics and Genetic Engineering, University of Belgrade, Serbia.

[5] = system: A549, A375, MDA-MB-231, and HCT116 cancer cell lines; test: MTT assay, whole cell line panel; assay type: cell-based; details: human, 48 h
Protocol: as §1

WI-38-40 (fibroblasts) = system: WI-38-40 (fibroblasts); parameters: method as in printed; details: WI-38-40, 72 h exposure; literature, ref not given; cited from earlier work
[6] = system: HBL-100 (breast epithelial cells); parameters: method as in printed; details: HBL-100, 72 h exposure; literature, ref not given; cited from earlier work
breast cancer cell lines = system: breast cancer cell lines; parameters: method as in printed; details: breast cancer cells, 72 h exposure; literature, ref not given; cited from earlier work

For `CCCCCC1=C(Br)/C(=C/c2[nH]c(-c3[nH]ccc3Br)cc2OC)N=C1C` [PG-Br2], which IC50 (MRC-5 (lung fibroblasts); MRC-5, 48 h treatment) is on record?
The IC50 was 10 ± 0.09 µg/mL (≈ 20.8 µM).

What about the IC50 (MRC-5 (lung fibroblasts); MRC-5, exposure time 24 h) of the same molecule?
Its IC50 is 15 ± 0.05 µg/mL (≈ 31.2 µM).

And the IC50 (MRC-5 (lung fibroblasts); MRC-5, exposure time 72 h)?
Its IC50 is 10 ± 0.08 µg/mL (≈ 20.8 µM).

What about the IC50 (A549 (lung cancer)) of the same molecule?
Its IC50 is 16 ± 0.08 µg/mL (≈ 33.2 µM).

What about the IC50 [1] of the same molecule?
Its IC50 is 12 ± 0.04 µg/mL (≈ 24.9 µM).

What about the IC50 [2] of the same molecule?
The IC50 was 17 ± 0.05 µg/mL (≈ 35.3 µM).

What about the IC50 (HCT116 (colon cancer); HCT116, 48 h treatment) of the same molecule?
The IC50 was 10 ± 0.08 µg/mL (≈ 20.8 µM).

And the IC50 (HCT116 (colon cancer); HCT116, exposure time 24 h)?
The IC50 was 50 ± 0.09 µg/mL (≈ 104 µM).

And the IC50 (HCT116 (colon cancer); HCT116, exposure time 72 h)?
Its IC50 is 10 ± 0.05 µg/mL (≈ 20.8 µM).

And the “Annexin V Positive Cells” value (MRC-5 cells)?
The value was 19.6 ± 0.6%.

And the Survival rate ([3]; 1.57 µg/mL)?
The Survival rate was 100 ± 0.00%.

And the Survival rate ([3]; 3.13 µg/mL)?
Its Survival rate is 100 ± 0.00%.

What about the Survival rate ([3]; 6.25 µg/mL) of the same molecule?
Its Survival rate is 100 ± 0.00%.

What about the Survival rate ([3]; 12.50 µg/mL) of the same molecule?
The Survival rate was 100 ± 0.00%.

And the Survival rate ([3]; 25.00 µg/mL)?
Its Survival rate is 100 ± 0.00%.

What about the Survival rate ([3]; 50.00 µg/mL) of the same molecule?
The Survival rate was 100 ± 0.00%.

And the motility of nematodes ([3]; all tested concentrations)?
The motility of nematodes was “significantly impaired”.

And the death rate ([4]; 10 µg/mL applied at 6 hpf)?
Its death rate is 0%.

What about the embryos survival rate ([4]; 20 µg/mL, 6 hpf and 20 hpf) of the same molecule?
Its embryos survival rate is 100%.

What about the teratogenic effects ([4]; 20 µg/mL, 6 hpf and 20 hpf) of the same molecule?
Its teratogenic effects is “without any teratogenic effects”.

And the effect on embryos ([4]; 50–70 µg/mL, application at 6 hpf)?
The effect on embryos was “severe toxicity and abnormal development”.

What about the “lower cytotoxicity in comparison to PG” value [5] of the same molecule?
Its value is 8-27 fold.

Which “dose for growth inhibition” value (WI-38-40 (fibroblasts)) does the source give for cycloprodigiosin [cPG] here?
Its value is 0.73 µg/mL.

And the “dose for growth inhibition” value [6]?
The value was 0.57 µg/mL.

What about the IC50 (breast cancer cell lines) of the same molecule?
The IC50 was 0.15 to 0.20 µg/mL.
